Measurements reported in PubChem BioAssay AID248 (DTP/NCI, 2004).
Values joined by “and” are separate entries in the source; they are usually repeats but may differ in a detail not shown here. Equal values may be shown once. Toxic doses and inconclusive results are not listed. No stated cut-off is given here; in the data, active means T/C of 150% or more; inactive means T/C below 125%.

Test system: L1210 leukemia ip in BDF1 mice, survival T/C
Test: NCI In Vivo Anticancer Drug Screen. Data for tumor model L1210 Leukemia (intraperitoneal) in B6D2F1 (BDF1) mice
Conditions: endpoint: mean survival time, higher = longer survival
How it was run: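 Tumor was transplanted into mice, which were then dosed with test compound or vehicle alone. Survival was recorded for each group, and the treated figure was expressed relative to the control figure.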

[1] = dose: 50.0 mg/kg/injection, schedule: Q01DX001 (ip), vehicle: carboxymethylcellulose (CMC)
[2] = dose: 100.0 mg/kg/injection, schedule: Q01DX001 (ip), vehicle: carboxymethylcellulose (CMC)
[3] = dose: 200.0 mg/kg/injection, schedule: Q01DX001 (ip), vehicle: carboxymethylcellulose (CMC)
[4] = dose: 400.0 mg/kg/injection, schedule: Q01DX001 (ip), vehicle: carboxymethylcellulose (CMC)
[5] = dose: 100.0 mg/kg/injection, schedule: Q01DX009 (ip), vehicle: saline
[6] = dose: 200.0 mg/kg/injection, schedule: Q01DX009 (ip), vehicle: saline
[7] = dose: 100.0 mg/kg/injection, schedule: Q01DX001 (ip), vehicle: saline
[8] = dose: 200.0 mg/kg/injection, schedule: Q01DX001 (ip), vehicle: saline
[9] = dose: 400.0 mg/kg/injection, schedule: Q01DX001 (ip), vehicle: saline
[10] = dose: 100.0 mg/kg/injection, schedule: Q01DX009 (ip), vehicle: Klucel (hydroxypropylcellulose) (HPC)
[11] = dose: 200.0 mg/kg/injection, schedule: Q01DX009 (ip), vehicle: Klucel (hydroxypropylcellulose) (HPC)
[12] = dose: 400.0 mg/kg/injection, schedule: Q01DX009 (ip), vehicle: Klucel (hydroxypropylcellulose) (HPC)
[13] = dose: 100.0 mg/kg/injection, schedule: Q04DX002 (ip), vehicle: saline with Tween-80
[14] = dose: 200.0 mg/kg/injection, schedule: Q04DX002 (ip), vehicle: saline with Tween-80
[15] = dose: 100.0 mg/kg/injection, schedule: Q04DX003 (ip), vehicle: saline
[16] = dose: 200.0 mg/kg/injection, schedule: Q04DX003 (ip), vehicle: saline
[17] = dose: 400.0 mg/kg/injection, schedule: Q04DX003 (ip), vehicle: saline
[18] = dose: 5.0 mg/kg/injection, schedule: Q01DX001 (ip), vehicle: saline

Measured: T/C

CCOC(=O)c1ccc2c(ccc3ccccc32)n1
inactive: dose: 25.0 mg/kg/injection, schedule: Q01DX001 (ip), vehicle: carboxymethylcellulose (CMC) 97 % of control | dose: 25.0 mg/kg/injection, schedule: Q01DX009 (ip), vehicle: carboxymethylcellulose (CMC) 98 % of control and 102 % of control | dose: 25.0 mg/kg/injection, schedule: Q04DX002 (ip), vehicle: carboxymethylcellulose (CMC) 93 % of control and 104 % of control | dose: 25.0 mg/kg/injection, schedule: Q04DX003 (ip), vehicle: carboxymethylcellulose (CMC) 108 % of control | [1] 102 % of control | dose: 50.0 mg/kg/injection, schedule: Q01DX009 (ip), vehicle: carboxymethylcellulose (CMC) 94 % of control and 98 % of control | dose: 50.0 mg/kg/injection, schedule: Q04DX002 (ip), vehicle: carboxymethylcellulose (CMC) 97 % of control | dose: 50.0 mg/kg/injection, schedule: Q04DX003 (ip), vehicle: carboxymethylcellulose (CMC) 102 % of control | [2] 94 % of control | dose: 100.0 mg/kg/injection, schedule: Q01DX009 (ip), vehicle: carboxymethylcellulose (CMC) 100 % of control | dose: 100.0 mg/kg/injection, schedule: Q04DX002 (ip), vehicle: carboxymethylcellulose (CMC) 93 % of control and 101 % of control | dose: 100.0 mg/kg/injection, schedule: Q04DX003 (ip), vehicle: carboxymethylcellulose (CMC) 105 % of control

c1ccc(-c2csc3[n+]2CCN3)cc1
inactive: dose: 50.0 mg/kg/injection, schedule: Q01DX001 (ip), vehicle: saline 99 % of control

COc1cc(CC(C(=O)OC(C)(C)C)C(=O)OC(C)(C)C)cc(OC)c1OC
inactive: [1] 101 % of control | [2] 97 % of control | [3] 97 % of control | [4] 109 % of control

COc1ccc2nc3cc(Cl)ccc3c(NCC3(c4ccccc4)CCN(C)CC3)c2c1
inactive: dose: 12.5 mg/kg/injection, schedule: Q04DX003 (ip), vehicle: saline 97 % of control | dose: 25.0 mg/kg/injection, schedule: Q04DX003 (ip), vehicle: saline 90 % of control

OC(c1cccc2ccccc12)c1c2ccccc2cc2ccccc12 (centres undefined)
inactive: dose: 50.0 mg/kg/injection, schedule: Q01DX009 (ip), vehicle: saline 96 % of control | dose: 100.0 mg/kg/injection, schedule: Q01DX005 (ip), vehicle: saline 98 % of control | [5] 102 % of control and 104 % of control | dose: 100.0 mg/kg/injection, schedule: Q04DX002 (ip), vehicle: saline 93 % of control | dose: 200.0 mg/kg/injection, schedule: Q01DX005 (ip), vehicle: saline 103 % of control | [6] 100 % of control | dose: 200.0 mg/kg/injection, schedule: Q04DX002 (ip), vehicle: saline 97 % of control | dose: 400.0 mg/kg/injection, schedule: Q01DX005 (ip), vehicle: saline 106 % of control | dose: 400.0 mg/kg/injection, schedule: Q01DX009 (ip), vehicle: saline 108 % of control and 91 % of control | dose: 400.0 mg/kg/injection, schedule: Q04DX002 (ip), vehicle: saline 97 % of control

CC1(C(N)=O)CC2C=CC1C2 (centres undefined)
inactive: [3] 98 % of control | [4] 95 % of control

O=S(=O)(c1ccccc1)C1CN=NC1c1ccccc1 (centres undefined)
inactive: dose: 50.0 mg/kg/injection, schedule: Q01DX009 (ip), vehicle: acetone 95 % of control | [7] 100 % of control | dose: 100.0 mg/kg/injection, schedule: Q01DX009 (ip), vehicle: acetone 93 % of control | [8] 94 % of control | dose: 200.0 mg/kg/injection, schedule: Q01DX009 (ip), vehicle: acetone 92 % of control | [9] 96 % of control

Cc1cc(C)c(NC(=O)Nc2ccc(Cl)cc2)c(C)c1
inactive: [10] 92 % of control | dose: 100.0 mg/kg/injection, schedule: Q04DX003 (ip), vehicle: Klucel (hydroxypropylcellulose) (HPC) 100 % of control | [11] 92 % of control | dose: 200.0 mg/kg/injection, schedule: Q04DX003 (ip), vehicle: Klucel (hydroxypropylcellulose) (HPC) 97 % of control | [12] 96 % of control | dose: 400.0 mg/kg/injection, schedule: Q04DX003 (ip), vehicle: Klucel (hydroxypropylcellulose) (HPC) 97 % of control

N#C/C(=C\C1CC(Br)CCC1O)C1CCC([N+](=O)[O-])CC1 (centres undefined)
inactive: [13] 97 % of control | [14] 86 % of control

CC(=O)CC(=O)Nc1ccc(NC(C)=O)cc1
inactive: [7] 96 % of control | [8] 100 % of control | [9] 105 % of control

CN(C)C=Nc1cc2c(cc1Br)-c1ccccc1C2=O
inactive: [10] 101 % of control | [11] 95 % of control | [12] 93 % of control

CC(=O)OCc1ccccn1
inactive: [5] 97 % of control | [15] 94 % of control | [6] 97 % of control | [16] 99 % of control | [17] 93 % of control

CCC[CH2][Sn]1([CH2]CCC)[O]C(=O)c2ccc(C(=O)O)cc2C(=O)[O]1
inactive: [18] 105 % of control

O=S(=O)(F)c1ccc(C[P+](c2ccccc2)(c2ccccc2)c2ccccc2)cc1
inactive: dose: 75.0 mg/kg/injection, schedule: Q01DX001 (ip), vehicle: saline 106 % of control | dose: 150.0 mg/kg/injection, schedule: Q01DX001 (ip), vehicle: saline 105 % of control | dose: 300.0 mg/kg/injection, schedule: Q01DX001 (ip), vehicle: saline 98 % of control

Ic1ccc2c(c1)OCCOCCOCCOCCO2
inactive: dose: 50.0 mg/kg/injection, schedule: Q04DX002 (ip), vehicle: saline with Tween-80 102 % of control | [13] 102 % of control | [14] 107 % of control

CCCCCCC(=O)CCCC
inactive: dose: 100.0 mg/kg/injection, schedule: Q01DX009 (ip), vehicle: saline with Tween-80 102 % of control | [15] 98 % of control | dose: 200.0 mg/kg/injection, schedule: Q01DX009 (ip), vehicle: saline with Tween-80 111 % of control | [16] 88 % of control | dose: 400.0 mg/kg/injection, schedule: Q01DX009 (ip), vehicle: saline with Tween-80 98 % of control | [17] 94 % of control

Cc1cccc(Cl)c1OCC(N)=O
inactive: [13] 111 % of control | [14] 103 % of control | dose: 400.0 mg/kg/injection, schedule: Q04DX002 (ip), vehicle: saline with Tween-80 111 % of control

Cc1c(C)c(C)c(CNNC(=S)Nc2cccc(Cl)c2)c(C)c1C
inactive: [10] 95 % of control | [11] 91 % of control | [12] 91 % of control

CC1CCC2N(C1)CC1C3(O)CC4(O)C(CCC5C(=O)C(O)CCC54C)C3(O)CC(O)C1(O)C2(C)O (centres undefined)
inactive: [18] 98 % of control | dose: 10.0 mg/kg/injection, schedule: Q01DX001 (ip), vehicle: saline 98 % of control | dose: 20.0 mg/kg/injection, schedule: Q01DX001 (ip), vehicle: saline 98 % of control

COC(=O)c1cc(C)cc(N2c3ccccc3-c3cc(C)ccc3S2(=O)=O)c1C
inactive: [2] 104 % of control | [3] 102 % of control | [4] 96 % of control

O=C(Cn1cc(F)c(=O)[nH]c1=O)N1CCC2(CC1)SSC1(CCN(C(=O)Cn3cc(F)c(=O)[nH]c3=O)CC1)S2
inactive: [5] 96 % of control | [15] 104 % of control | [6] 96 % of control | [16] 97 % of control | [17] 97 % of control

Cc1ccc(CC(C)(O)CC(C)(O)Cc2ccc(C)cc2)cc1 (centres undefined)
inactive: [15] 100 % of control | [16] 93 % of control | [17] 93 % of control
